Measurements taken from PMC8129133, “Polymer-free corticosteroid dimer implants for controlled and sustained drug delivery” (Nature Communications, 2021).
“And” between values parts separate entries of the source, which are not always exact repeats. Equal values may be shown once.

Test: In vitro release
Assay type: physicochemical
Details: for Cumulative Dex Release / Cumulative HC Release / Cumulative Dex Release (%) / Cumulative HC Release (%): Fig 6a heterodimer pellet; for Cumulative Dex Release / Cumulative HC Release: 4 ml PBS; for Cumulative Dex Release / Cumulative HC Release / Cumulative TA Release: samples and avg; for Cumulative Dex Release (%) / Cumulative HC Release (%): PBS; for Cumulative Dex Release (%) / Cumulative HC Release (%) / Cumulative TA Release (%): avg; for Cumulative TA Release (%): FBS
Protocol: Pellets for release studies. Crystalline drug dimers were weighed on a stainless steel coupon. In the case of blends with a second drug, the dimer and drug were mixed at the desired mass ratio with mortar and pestle prior to weighing. Samples were transferred to a heat press (Carver Laboratory Press). A PTFE mold containing an array of 1 mm diameter holes of 1 mm depth was placed on top of the melt, and pressure was applied for 2 min. Molded pellets were cooled to room temperature and punched out of the mold, yielding a pellet of 1 mm height × 1 mm diameter.
Release studies were carried out using different media, including PBS (pH 7.4, Gibco), 100% FBS (Sigma, F1051), 1% FBS in PBS pH 7.4, and 3.6% BSA (Sigma, A7906) in PBS (pH 7.4, Gibco). […] Samples were incubated in release medium at 37 °C under constant agitation on an orbital shaker at 115 rpm (VWR). At designated timepoints, sampling was performed by complete removal of medium and replenishment with fresh buffer. Sampling timepoints included 24 h and then every 3–4 days thereafter. For PBS release conditions, samples were analyzed directly. For samples with protein (100% FBS, 1% FBS, 3.6% BSA), protein was precipitated by addition of acetonitrile. Samples were vortexed and centrifuged to separate extracted drug from precipitated protein. The supernatant was then analyzed for drug concentration by HPLC.

## CC1CC2C3CCC4=CC(=O)C=CC4(C)C3(F)C(O)CC2(C)C1(O)C(=O)COC(=O)OCCOCCOCCOC(=O)OCC(=O)C1(O)CCC2C3CCC4=CC(=O)CCC4(C)C3C(O)CC21C (centres unmarked) [Dex-TEG-HC]
Day 1
  Cumulative Dex Release: 81.55 ng and 74.59 ng and 99.31 ng
  Cumulative HC Release: 224.52 ng and 206.99 ng and 167.90 ng
  Cumulative Dex Release (%): 0.0441%
  Cumulative HC Release (%): 0.11%
Day 1, mean
  Cumulative Dex Release: 85.15 ng
  Cumulative HC Release: 199.80 ng
Day 5
  Cumulative Dex Release: 2326.27 ng and 2325.49 ng and 1831.14 ng
  Cumulative HC Release: 2952.91 ng and 3019.31 ng and 2390.05 ng
  Cumulative Dex Release (%): 1.12%
  Cumulative HC Release (%): 1.51%
Day 5, mean
  Cumulative Dex Release: 2160.97 ng
  Cumulative HC Release: 2787.43 ng
Day 7
  Cumulative Dex Release: 3098.36 ng and 2980.56 ng and 2543.37 ng
  Cumulative HC Release: 4047.00 ng and 4113.39 ng and 3426.84 ng
  Cumulative Dex Release (%): 1.49%
  Cumulative HC Release (%): 2.09%
Day 7, mean
  Cumulative Dex Release: 2874.10 ng
  Cumulative HC Release: 3862.41 ng
Day 11
  Cumulative Dex Release: 4911.68 ng and 4696.17 ng and 4037.68 ng
  Cumulative HC Release: 6283.65 ng and 6328.14 ng and 5362.18 ng
  Cumulative Dex Release (%): 2.35%
  Cumulative HC Release (%): 3.25%
Day 11, mean
  Cumulative Dex Release: 4548.51 ng
  Cumulative HC Release: 5991.32 ng
Day 14
  Cumulative Dex Release: 6135.25 ng and 5788.05 ng and 5026.44 ng
  Cumulative HC Release: 7866.10 ng and 7754.88 ng and 6681.74 ng
  Cumulative Dex Release (%): 2.92%
  Cumulative HC Release (%): 4.03%
Day 14, mean
  Cumulative Dex Release: 5649.91 ng
  Cumulative HC Release: 7434.24 ng

## CC1(C)OC2CC3C4CCC5=CC(=O)C=CC5(C)C4(F)C(O)CC3(C)C2(C(=O)COC(=O)OCCOCCOCCOC(=O)OCC(=O)C23OC(C)(C)OC2CC2C4CCC5=CC(=O)C=CC5(C)C4(F)C(O)CC23C)O1 (centres unmarked) [TA-TEG-TA]
Fig 5b pellet 1x1 mm, 4 ml FBS, Day 3
  Cumulative TA Release: 5664.02 ng and 5830.61 ng and 10508.43 ng and 8884.74 ng and 7887.68 ng
Fig 5b pellet 1x1 mm, 4 ml FBS, Day 3, mean
  Cumulative TA Release: 7755.10 ng
Fig 5b pellet 1x1 mm, 4 ml FBS, Day 10
  Cumulative TA Release: 24788.43 ng and 27087.36 ng and 33297.79 ng and 37315.92 ng and 18944.25 ng
Fig 5b pellet 1x1 mm, 4 ml FBS, Day 10, mean
  Cumulative TA Release: 28286.75 ng
Fig 5b pellet 1x1 mm, 4 ml FBS, Day 14
  Cumulative TA Release: 34850.40 ng and 35016.99 ng and 40361.16 ng and 49853.28 ng and 32172.64 ng
Fig 5b pellet 1x1 mm, 4 ml FBS, Day 14, mean
  Cumulative TA Release: 38450.90 ng
Fig 5b pellet, Day 1
  Cumulative TA Release (%): 0.13%
Fig 5b pellet, Day 3
  Cumulative TA Release (%): 0.96%
Fig 5b pellet, Day 7
  Cumulative TA Release (%): 2.37%
Fig 5b pellet, Day 10
  Cumulative TA Release (%): 3.49%
Fig 5b pellet, Day 14
  Cumulative TA Release (%): 4.75%
Fig 5f microparticles, 10 ml FBS, 1st time point (day not given)
  Cumulative TA Release: 2977.29 ng and 2848.37 ng and 4097.61 ng
Fig 5f microparticles, 10 ml FBS, 1st time point (day not given), mean
  Cumulative TA Release: 3307.76 ng
Fig 5f microparticles, 10 ml FBS, 2nd time point (day not given)
  Cumulative TA Release: 14594.84 ng and 16537.75 ng and 15417.43 ng
Fig 5f microparticles, 10 ml FBS, 2nd time point (day not given), mean
  Cumulative TA Release: 15516.68 ng
Fig 5f microparticles, 10 ml FBS, 3rd time point (day not given)
  Cumulative TA Release: 49825.05 ng and 51101.90 ng and 51098.83 ng
Fig 5f microparticles, 10 ml FBS, 3rd time point (day not given), mean
  Cumulative TA Release: 50675.26 ng
Fig 5f microparticles, 10 ml FBS, 4th time point (day not given)
  Cumulative TA Release: 60024.55 ng and 61820.14 ng and 64573.36 ng
Fig 5f microparticles, 10 ml FBS, 4th time point (day not given), mean
  Cumulative TA Release: 62139.35 ng
Fig 5f microparticles, 10 ml FBS, 5th time point (day not given)
  Cumulative TA Release: 83317.99 ng and 79582.57 ng and 89772.87 ng
Fig 5f microparticles, 10 ml FBS, 5th time point (day not given), mean
  Cumulative TA Release: 84224.47 ng
Fig 5f microparticles, 1st time point
  Cumulative TA Release (%): 2.67%
Fig 5f microparticles, 2nd time point
  Cumulative TA Release (%): 12.50%
Fig 5f microparticles, 3rd time point
  Cumulative TA Release (%): 40.83%
Fig 5f microparticles, 4th time point
  Cumulative TA Release (%): 50.07%
Fig 5f microparticles, 5th time point
  Cumulative TA Release (%): 67.87%
